Laboratory results published in US20250134870A1, “PATHWAY MODULATOR, PHARMACEUTICAL COMPOSITION HAVING SAME, USE THEREOF, AND THERAPEUTIC METHOD USING SAME” (Jiangsu Yahong Meditech Co., Ltd., priority 2021, published 2025).
Like-named read-outs stand apart in the source and are kept apart here.

How the values were obtained:
[1] = test system: bleomycin-induced skin fibrosis; experiment: Bleomycin-induced skin fibrosis in mice: skin histopathology (dermal thickness, capillary density score, inflammatory cell infiltration score); type: in vivo, male C57BL/6 mice
Experimental: The skin tissue of the lesioned skin was subjected to dehydration, embedding and sectioning according to the pathology SOP, and the tissue was stained by HE and Masson staining. Histopathological analysis was performed according to the following methods:
Masson-stained sections were panoramically scanned by using Nanozomer S210 and the scanned images were subjected to quantitative analysis using Visiopharm VIS6.0 software. The degree of fibrosis was currently represented by the dermal thickness after Masson staining.
The fields of observation was selected in the dermis layer of the lesioned area (the number of fields selected was determined according to the size of the lesioned area) and scored according to the area occupied by capillaries in the area: • 0: No capillary formed • 1: The proportion of capillaries formed was less than 25%; • 2: The proportion of capillaries formed was 25-50%; • 3: The proportion of capillaries formed was 50-75%; • 4: The proportion of capillaries formed was greater than 75%. 3.8.3 Inflammatory cell infiltration score of dermis layer
The fields of observation was selected in the dermis layer of the lesioned area (the number of fields selected was determined according to the size of the lesioned area) and scored according to the degree of inflammatory cell infiltration: • 0: No inflammatory cell infiltration: • 1: A small amount of focal inflammatory cell infiltration; • 2: Scattered diffuse inflammatory cell infiltration: • 3: A large amount of diffuse inflammatory cell infiltration; • 4: A large amount of agglomerated inflammatory cell infiltration.

[2] = test system: 2,4-dinitrobenzenesulfonic acid (DNBS)-induced colitis; experiment: DNBS-induced colitis in rats: macroscopic evaluation of colon on Day 7 (colon length, weight, ulcer area, CW/CL, CW/BW, CW/CL/BW); type: in vivo, Wistar rats; details: for inhibition at 3 mg/kg / inhibition at 10 mg/kg / inhibition at 30 mg/kg: Rattus norvegicus, 168 h; for BW / CW/BW ×100 / Ulcer area / Ulcer length / Ulcer width: mean
Experimental: (3) Colon observation: after the end of the experiment, all animals were anesthetized with Zoletil (intravenous injection, 25 mg/kg) and the abdominal cavity was opened. Blood was collected from the abdominal aorta with EDTA anticoagulation (centrifugation conditions: 4° C., 2,000 g, 10 min). After the animals were sacrificed by bloodletting, the colon (from the cecum to the anus) was dissected and the colon length was measured immediately. The colon was longitudinally incised and rinsed until clean. Then the colon weight and ulcer area were recorded, and the colon was photographed as a whole and divided into three parts, among which two parts were stored at −80° C. after flash freezing with liquid nitrogen for MPO and cytokine detection, and the other part of colon was fixed with 10% neutral buffered formalin. If the ulcer was irregularly shaped, it could be considered as rectangular, and then its length and width were measured for ulcer area assessment. Ulcer area (cm^2)=ulcer length (cm)×ulcer width (cm).

[3] = 50 and 100 mg/kg PO QD, 28 days (Test groups 2#, 3#)
[4] = G4 Test group 1#, 3 mg/kg PO QD × 7
[5] = G5 Test group 2#, 10 mg/kg PO QD × 7
[6] = G6 Test group 3#, 30 mg/kg PO QD × 7

Structure (SMILES): NCc1c[nH]c(=S)n1[C@H]1CCc2c(F)cc(F)cc2C1 [Nepicastat]
- degree of fibrosis of the lesioned skin ([1]; 100 mg/kg PO QD, 28 days (Test group 3#)): reduce the degree of fibrosis of the lesioned skin
- effect to reduce dermal thickness ([1]; 25, 50 and 100 mg/kg PO QD, 28 days): dose-dependent, and the higher the dose, the more obvious the result, but there was no significant difference compared with the model group
- inflammatory cell infiltration of the lesioned skin [1, 3]: significantly reduce
- subdermal capillary hyperplasia [1, 3]: significantly reduce
- inhibition at 3 mg/kg ([2]; 3 mg/kg (Test group 1#), read-out: inhibition rate of CW/BW): 40.2%
- inhibition at 3 mg/kg ([2]; 3 mg/kg (Test group 1#), read-out: inhibition rate of CW/CL): 30.8%
- inhibition at 3 mg/kg ([2]; 3 mg/kg (Test group 1#), read-out: inhibition rate of CW/CL/BW): 33%
- inhibition at 10 mg/kg ([2]; 10 mg/kg (Test group 2#), read-out: inhibition rate of CW/BW): 47.1%
- inhibition at 10 mg/kg ([2]; 10 mg/kg (Test group 2#), read-out: inhibition rate of CW/CL): 43.8%
- inhibition at 10 mg/kg ([2]; 10 mg/kg (Test group 2#), read-out: inhibition rate of CW/CL/BW): 45%
- inhibition at 30 mg/kg ([2]; 30 mg/kg (Test group 3#), read-out: inhibition rate of CW/BW): 39.9%
- inhibition at 30 mg/kg ([2]; 30 mg/kg (Test group 3#), read-out: inhibition rate of CW/CL): 26.7%
- inhibition at 30 mg/kg ([2]; 30 mg/kg (Test group 3#), read-out: inhibition rate of CW/CL/BW): 27.1%
- inhibition at 3 mg/kg ([2]; G4 Test group 1#, 3 mg/kg PO QD × 7, read-out: IR1 (inhibition rate 1, CW/CL/BW)): 33%
- inhibition at 3 mg/kg ([2]; G4 Test group 1#, 3 mg/kg PO QD × 7, read-out: IR2 (inhibition rate 2, CW/BW)): 40.2%
- inhibition at 3 mg/kg ([2]; G4 Test group 1#, 3 mg/kg PO QD × 7, read-out: IR3 (inhibition rate 3, CW/CL)): 30.8%
- inhibition at 10 mg/kg ([2]; G5 Test group 2#, 10 mg/kg PO QD × 7, read-out: IR1 (inhibition rate 1, CW/CL/BW)): 45%
- inhibition at 10 mg/kg ([2]; G5 Test group 2#, 10 mg/kg PO QD × 7, read-out: IR2 (inhibition rate 2, CW/BW)): 47.1%
- inhibition at 10 mg/kg ([2]; G5 Test group 2#, 10 mg/kg PO QD × 7, read-out: IR3 (inhibition rate 3, CW/CL)): 43.8%
- inhibition at 30 mg/kg ([2]; G6 Test group 3#, 30 mg/kg PO QD × 7, read-out: IR1 (inhibition rate 1, CW/CL/BW)): 27.1%
- inhibition at 30 mg/kg ([2]; G6 Test group 3#, 30 mg/kg PO QD × 7, read-out: IR2 (inhibition rate 2, CW/BW)): 39.9%
- inhibition at 30 mg/kg ([2]; G6 Test group 3#, 30 mg/kg PO QD × 7, read-out: IR3 (inhibition rate 3, CW/CL)): 26.7%
- BW [2, 4]: 168.65 g
- CW/BW ×100 [2, 4]: 1.05
- Ulcer area [2, 4]: 1.36 cm^2
- Ulcer length [2, 4]: 1.08 cm
- Ulcer width [2, 4]: 0.87 cm
- BW [2, 5]: 169.54 g
- CW/BW ×100 [2, 5]: 1.01
- Ulcer area [2, 5]: 1.17 cm^2
- Ulcer length [2, 5]: 0.97 cm
- Ulcer width [2, 5]: 0.73 cm
- BW [2, 6]: 164.62 g
- CW/BW ×100 [2, 6]: 1.05
- Ulcer area [2, 6]: 1.35 cm^2
- Ulcer length [2, 6]: 1.09 cm
- Ulcer width [2, 6]: 0.95 cm
